Laboratory results reported in patent US11071788B2, “Antibody drug conjugates of kinesin spindel protein (KSP) inhibitors with antiB7H3-antibodies” (BAYER PHARMA AKTIENGESELLSCHAFT, priority 2015, dated 2021).

Experiments:
[1] = Cell permeability flux assay using Caco-2 cells; type: in vitro ADME; details: human; Caco-2, 2 hours incubation
[2] = system: NCI-H292; assay: Cytotoxicity MTT assay, NCI-H292; type: cell-based, human; details: Homo sapiens, NCI-H292, MTT assay
Excerpt: (§1) Table 2 below lists the IC50 values of representative working examples from the assay described and the corresponding cytotoxicity data (MTT assay).

[3] = system: KPL4; assay: Cytotoxicity MTT assay, KPL4; type: cell-based; details: KPL4, MTT assay
Excerpt: as §1

[4] = system: MCF-7: human breast cancer cells, B7H3-positive; assay: CTG cytotoxicity assay of anti-B7H3 ADCs, MCF-7; type: cell-based; details: MCF7, 72 h incubation, growth inhibition vs day 0
Protocol: The cells were cultivated according to the standard method using the growth media listed under C-1. […] The cells were then incubated in an incubator at 37° C., and 5% carbon dioxide. In a parallel plate, the cell vitality was determined at the start of the drug treatment (day 0) using the Cell Titer Glow (CTG) Luminescent Cell Viability Assay (Promega #G7573 and #G7571). To this end, 100 μl of the substance were added per cell batch, the plates were then covered with aluminium foil, shaken on the plate shaker at 180 rpm for 2 minutes, allowed to stand on the laboratory bench for 8 minutes and then measured using a luminometer (Victor X2, Perkin Elmer). The substrate detects the ATP content in the living cells, generating a luminescence signal of which the height is directly proportional to the vitality of the cells. […] From the measured data, the IC^50 of the growth inhibition in comparison to day 0 was calculated using the DRC (dose response curve) analysis spreadsheet with a 4-parameter fit.

[5] = system: Raji: human Burkitt's lymphoma cells, B7H3-negative; assay: CTG cytotoxicity assay of anti-B7H3 ADCs, Raji; type: cell-based; details: 72 h incubation
Protocol: The analysis of the cytotoxic effects of the anti-B7H3 ADCs was carried out with various cell lines:
Raji: human Burkitt's lymphoma cells, DMSZ-ACC-319, standard medium: RPMI 1640; (Biochrom; # FG 1215, with stable glutamine)+10% FCS (Biochrom; # S0415), B7H3-negative.
The cells were cultivated by the standard method as stated by the American Tissue Culture Collection (ATCC) for the cell lines in question.
The cells were cultivated according to the standard method using the growth media listed under C-1. […] In a parallel plate, the cell vitality was determined at the start of the drug treatment (day 0) using the Cell Titer Glow (CTG) Luminescent Cell Viability Assay (Promega #G7573 and #G7571). To this end, 100 μl of the […] were added per cell batch, the plates were then covered with aluminium foil, shaken on the plate shaker at 180 rpm for 2 minutes, allowed to stand on the laboratory bench for 8 minutes and then measured using a luminometer (Victor X2, Perkin Elmer). The substrate detects the ATP content in the living cells, generating a luminescence signal of which the height is directly proportional to the vitality of the cells. […] From the measured data, the IC^50 of the growth inhibition in comparison to day 0 was calculated using the DRC (dose response curve) analysis spreadsheet with a 4-parameter fit. […]

For CC(C)(C)[C@H](c1cc(-c2cc(F)ccc2F)cn1Cc1ccccc1)N(CC[C@H](N)C(=O)NC(CCC(=O)O)C(=O)O)C(=O)CO.O=C(O)C(F)(F)F (stereo in doubt) [Example M25, N-{(2S)-2-Amino-4-[{(1R)-1-[1-benzyl-4-(2,5-difluorophenyl)-1H-pyrrol-2-yl]-2,2-dimethylpropyl}(glycoloyl)amino]butanoyl}-L-glutamic acid-trifluoroacetic acid (1:1)], the Papp B→A at 2 h [1] was 0.81 ×10⁻⁶ cm/s, the IC50 [2] was 500 nM and the IC50 [3] was 500 nM.
In the case of CC(C)(C)[C@H](c1cc(-c2cc(F)ccc2F)cn1Cc1ccccc1)N(CC[C@H](N)C(=O)NCCNC(=O)CNC(=O)C[C@@H](SC[C@H](N)C(=O)O)C(=O)O)C(=O)CO (racemic) [Example M26, 4-[(2-{[2-({(2S)-2-Amino-4-[{(1R)-1-[1-benzyl-4-(2,5-difluorophenyl)-1H-pyrrol-2-yl]-2,2-dimethylpropyl}(glycoloyl)amino]butanoyl}amino)ethyl]amino}-2-oxoethyl)amino]-2-{[(2R)-2-amino-2-carboxyethyl]sulfanyl}-4-oxobutanoic acid-trifluoroacetic acid (1:1)], the Papp B→A at 2 h [1] is reported as 1.3 ×10⁻⁶ cm/s and the IC50 [2] is reported as 63.8 nM.
For CC(C)(C)[C@H](c1cc(-c2cc(F)ccc2F)cn1Cc1ccccc1)N(CCCN)C(=O)CO [M09, N-(3-Aminopropyl)-N-{(1R)-1-[1-benzyl-4-(2,5-difluorophenyl)-1H-pyrrol-2-yl]-2,2-dimethylpropyl}-2-hydroxyacetamide], the IC50 [4] was 0.03 nM and the IC50 [5] was 0.03 nM.
